The results in this text go back to PubChem BioAssay AID328 (DTP/NCI, 2004).

The test system of this experiment is BDF1 mice, P388 leukemia ip, median survival T/C. Put plainly: NCI In Vivo Anticancer Drug Screen. Data for tumor model P388 Leukemia (intraperitoneal) in B6D2F1 (BDF1) mice. As to conditions: endpoint: median survival time, higher = longer survival. In outline: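 Antitumour effect was judged in vivo: survival in drug-treated mice, normalised to that of vehicle-dosed controls, gives the reported T/C.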

Where [1] appears, read: dose: 50.0 mg/kg/injection, schedule: Q01DX009 (ip), vehicle: Klucel (hydroxypropylcellulose) (HPC).
The mark [2] stands for this setting: dose: 100.0 mg/kg/injection, schedule: Q01DX001 (ip), vehicle: Klucel (hydroxypropylcellulose) (HPC).
Setting [3] is: dose: 200.0 mg/kg/injection, schedule: Q01DX001 (ip), vehicle: Klucel (hydroxypropylcellulose) (HPC).
Setting [4] is: dose: 400.0 mg/kg/injection, schedule: Q01DX001 (ip), vehicle: Klucel (hydroxypropylcellulose) (HPC).
The mark [5] stands for this setting: dose: 100.0 mg/kg/injection, schedule: Q01DX009 (ip), vehicle: other.
[6] abbreviates: dose: 100.0 mg/kg/injection, schedule: Q01DX009 (ip), vehicle: saline with Tween-80.

Values joined by “and” are separate entries in the source; they are usually repeats but may differ in a detail not shown here. Identical values can stand only once. Toxic doses and inconclusive results are not listed.

With `CN(N=O)C(=O)N[C@@H](C=O)[C@@H](O)[C@H](O)[C@H](O)CO`, the T/C runs as follows: (dose: 17.0 mg/kg/injection, schedule: Q01DX009 (ip), vehicle: water) 118 % of control; (dose: 39.0 mg/kg/injection, schedule: Q01DX009 (ip), vehicle: water) 161 % of control; (dose: 40.0 mg/kg/injection, schedule: Q01DX010 (ip), vehicle: other) 154 % of control; (dose: 50.0 mg/kg/injection, schedule: Q01DX009 (ip), vehicle: other) 171 % of control; (dose: 58.0 mg/kg/injection, schedule: Q01DX009 (ip), vehicle: water) 157 % of control and 181 % of control; (dose: 80.0 mg/kg/injection, schedule: Q01DX010 (ip), vehicle: other) 118 % of control. The T/C is 154 % of control and 170 % of control (dose: 87.0 mg/kg/injection, schedule: Q01DX009 (ip), vehicle: water); 109 % of control (dose: 100.0 mg/kg/injection, schedule: Q04DX002 (ip), vehicle: saline); 89 % of control (dose: 130.0 mg/kg/injection, schedule: Q01DX009 (ip), vehicle: water); 100 % of control (dose: 200.0 mg/kg/injection, schedule: Q04DX002 (ip), vehicle: saline); 109 % of control (dose: 400.0 mg/kg/injection, schedule: Q04DX002 (ip), vehicle: saline).
For the compound `COC(=O)[C@@]12OC[C@]34[C@H]([C@@H](O)[C@@H]1O)[C@@]1(C)[C@H](O)C(=O)C=C(C)[C@@H]1C[C@H]3OC(=O)C(OC(C)=O)[C@@H]24` (some centres not stated), the T/C by setting is: (dose: 15.0 micrograms/kg/injection, schedule: Q01DX009 (ip), vehicle: saline + alcohol) 100 % of control; (dose: 16.0 micrograms/kg/injection, schedule: Q01DX009 (ip), vehicle: saline + alcohol) 100 % of control; (dose: 31.0 micrograms/kg/injection, schedule: Q01DX009 (ip), vehicle: saline + alcohol) 90 % of control and 100 % of control; (dose: 62.0 micrograms/kg/injection, schedule: Q01DX009 (ip), vehicle: saline + alcohol) 90 % of control and 104 % of control; (dose: 125.0 micrograms/kg/injection, schedule: Q01DX009 (ip), vehicle: saline + alcohol) 115 % of control; (dose: 250.0 micrograms/kg/injection, schedule: Q01DX009 (ip), vehicle: saline + alcohol) 110 % of control. Further, the T/C (dose: 500.0 micrograms/kg/injection, schedule: Q01DX009 (ip), vehicle: saline + alcohol) was 120 % of control.
Consider `COc1cccc2c1CCC1=C2CC=C2CC3(CCC21C)OCCO3` (configuration not stated), for which the T/C was 109 % of control (dose: 5.0 mg/kg/injection, schedule: Q04DX003 (sc), vehicle: steriod suspending solution); 104 % of control (dose: 10.0 mg/kg/injection, schedule: Q04DX003 (sc), vehicle: steriod suspending solution); 118 % of control (dose: 20.0 mg/kg/injection, schedule: Q04DX003 (sc), vehicle: steriod suspending solution).
Take `Oc1ccc2ccc3[nH]cnc3c2c1`: the T/C under setting [1] was 95 % of control; the T/C (dose: 100.0 mg/kg/injection, schedule: Q01DX009 (ip), vehicle: Klucel (hydroxypropylcellulose) (HPC)) was 95 % of control; the T/C (dose: 200.0 mg/kg/injection, schedule: Q01DX009 (ip), vehicle: Klucel (hydroxypropylcellulose) (HPC)) is 100 % of control.
Regarding `CC1=CC2C(C3C=CC2(C)C(=O)C3(C)Cc2ccccc2)C(C)(Cc2ccccc2)C1=O` (configuration not stated), the T/C is, setting by setting: under setting [2], 95 % of control; under setting [3], 95 % of control; under setting [4], 90 % of control.
As to `C[N+](C)(CC(=O)Nc1ccc(Cl)c(Cl)c1)CC(=O)c1ccc(Cl)cc1`, the T/C (dose: 6.25 mg/kg/injection, schedule: Q04DX003 (ip), vehicle: saline) was 110 % of control; the T/C (dose: 12.5 mg/kg/injection, schedule: Q04DX003 (ip), vehicle: saline) was 95 % of control; the T/C (dose: 25.0 mg/kg/injection, schedule: Q04DX003 (ip), vehicle: saline) is 100 % of control.
For `CC(Br)(C(Br)c1ccccc1)[N+](=O)[O-]` (configuration not stated), the T/C under setting [1] is 123 % of control.
Regarding `CNC(=O)OCc1c(COC(=O)NC)c(-c2ccc(Cl)cc2Cl)n2c1CCC2`, under setting [5], the T/C was 158 % of control.
`CCCCCCCCCC(O)CCCCCC` (configuration not stated): the T/C by setting is: under setting [5], 105 % of control; (dose: 100.0 mg/kg/injection, schedule: Q04DX003 (ip), vehicle: other) 95 % of control; (dose: 200.0 mg/kg/injection, schedule: Q04DX003 (ip), vehicle: other) 118 % of control.
Turning to `Nc1nc(=S)c2[nH]c(N=Nc3ccc(S(N)(=O)=O)cc3)nc2[nH]1`, the T/C reads like this: (dose: 12.5 mg/kg/injection, schedule: Q04DX003 (ip), vehicle: Klucel (hydroxypropylcellulose) (HPC)) 166 % of control; (dose: 25.0 mg/kg/injection, schedule: Q04DX003 (ip), vehicle: Klucel (hydroxypropylcellulose) (HPC)) 156 % of control.
Consider `CN(C)N=Nc1ccccc1Cl`, for which the T/C was 119 % of control (dose: 25.0 mg/kg/injection, schedule: Q01DX009 (ip), vehicle: saline with Tween-80) and 157 % of control under setting [6].
As for `CC[C@]12CN3CCc4c([nH]c5ccccc45)[C@@](C(=O)OC)(c4cc5c(cc4OC)N(C)[C@H]4[C@@](O)(C(=O)OC)[C@H](OC(C)=O)[C@]6(CC)C=CCN7CC[C@]54[C@@H]76)CC(C3)[C@H]1O2` (some centres not stated), the T/C is 155 % of control (dose: 0.5 mg/kg/injection, schedule: Q01DX009 (ip), vehicle: saline); 160 % of control (dose: 1.0 mg/kg/injection, schedule: Q01DX009 (ip), vehicle: saline); 124 % of control (dose: 1.5 mg/kg/injection, schedule: Q01DX009 (ip), vehicle: Klucel (hydroxypropylcellulose) (HPC)); 162 % of control (dose: 3.0 mg/kg/injection, schedule: Q01DX009 (ip), vehicle: Klucel (hydroxypropylcellulose) (HPC)); 180 % of control (dose: 3.0 mg/kg/injection, schedule: Q01DX009 (ip), vehicle: saline); 160 % of control (dose: 3.9 mg/kg/injection, schedule: Q01DX009 (ip), vehicle: saline). The T/C is, setting by setting: (dose: 6.0 mg/kg/injection, schedule: Q01DX009 (ip), vehicle: Klucel (hydroxypropylcellulose) (HPC)) 170 % of control and 171 % of control; (dose: 6.0 mg/kg/injection, schedule: Q01DX009 (ip), vehicle: saline with Tween-80) 225 % of control; (dose: 6.0 mg/kg/injection, schedule: Q01DX009 (ip), vehicle: saline) 234 % of control and 200 % of control; (dose: 9.0 mg/kg/injection, schedule: Q01DX009 (ip), vehicle: saline with Tween-80) 95 % of control; (dose: 9.0 mg/kg/injection, schedule: Q01DX009 (ip), vehicle: saline) 252 % of control; (dose: 12.0 mg/kg/injection, schedule: Q01DX009 (ip), vehicle: Klucel (hydroxypropylcellulose) (HPC)) 186 % of control and 216 % of control. Further, the T/C by setting is: (dose: 12.0 mg/kg/injection, schedule: Q01DX009 (ip), vehicle: saline) 240 % of control; (dose: 5.0 micrograms/kg/injection, schedule: Q01DX009 (ip), vehicle: saline) 104 % of control; (dose: 10.0 micrograms/kg/injection, schedule: Q01DX009 (ip), vehicle: saline) 109 % of control; (dose: 30.0 micrograms/kg/injection, schedule: Q01DX009 (ip), vehicle: saline) 109 % of control; (dose: 60.0 micrograms/kg/injection, schedule: Q01DX009 (ip), vehicle: saline) 100 % of control; (dose: 120.0 micrograms/kg/injection, schedule: Q01DX009 (ip), vehicle: saline) 95 % of control.
Regarding `Cc1ccc(C(=O)C2CN(C)CCC2(O)c2ccc(C)cc2)cc1` (configuration not stated), the T/C was 90 % of control under setting [2], 110 % of control under setting [3] and 90 % of control under setting [4].
For the compound `Cc1c(CCl)c(C)c(CCl)c(C)c1CCl`, the T/C (dose: 100.0 mg/kg/injection, schedule: Q04DX003 (ip), vehicle: Klucel (hydroxypropylcellulose) (HPC)) is 108 % of control.
As to `CCOC(=O)C(CCCCC(NC(C)=O)(C(=O)OCC)C(=O)OCC)(NC(C)=O)C(=O)OCC`, the T/C is 95 % of control under setting [6]; 100 % of control (dose: 200.0 mg/kg/injection, schedule: Q01DX009 (ip), vehicle: saline with Tween-80); 104 % of control (dose: 400.0 mg/kg/injection, schedule: Q01DX009 (ip), vehicle: saline with Tween-80).
Consider `CCOC(=O)Cn1c(C(F)(F)F)nc2nc(Cl)c(Cl)nc21`, for which the T/C by setting is: (dose: 100.0 mg/kg/injection, schedule: Q04DX003 (ip), vehicle: saline with Tween-80) 110 % of control; (dose: 200.0 mg/kg/injection, schedule: Q04DX003 (ip), vehicle: saline with Tween-80) 110 % of control; (dose: 400.0 mg/kg/injection, schedule: Q04DX003 (ip), vehicle: saline with Tween-80) 110 % of control.
